Laboratory results reported in ChEMBL document CHEMBL1201862, “PubChem BioAssay data set” (2004).
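All cell lines were grown in 96-well plates and treated with compound for 48 hours. GI50 is the concentration that inhibits growth by half.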 The source made the active and inactive calls. Rule as the data show it: active = GI50 up to about 1.1 µM and inactive = higher.

Assays:
Assay in all cases: inhibition of tumour cell growth, NCI panel, 48 h
A549 = tested on: A549
ACHN = tested on: ACHN
DMS-114 = tested on: DMS-114
EKVX = tested on: EKVX
HCT-116 = tested on: HCT-116
HL-60 = tested on: HL-60
HOP-92 = tested on: HOP-92
HT-29 = tested on: HT-29
K562 = tested on: K562
KM-20L2 = tested on: KM-20L2
MOLT-4 = tested on: MOLT-4
Malme-3M = tested on: Malme-3M
OVCAR-3 = tested on: OVCAR-3
SF-268 = tested on: SF-268
UACC-62 = tested on: UACC-62
Hs-578T = tested on: Hs-578T
MDA-MB-231 = tested on: MDA-MB-231
MDA-MB-435 = tested on: MDA-MB-435
PC-3 = tested on: PC-3
NCI/ADR-RES = tested on: NCI/ADR-RES

O=CN/C=C\c1cc(O)ccc1O
GI50 (A549): > 100 µM (inactive) | GI50 (ACHN): 15 µM (inactive) | GI50 (DMS-114): 14.5 µM (inactive) | GI50 (EKVX): 15.5 µM (inactive) | GI50 (HCT-116): 10.6 µM (inactive) | GI50 (HL-60): 10.4 µM (inactive) | GI50 (HOP-92): 14.2 µM (inactive) | GI50 (HT-29): 16.9 µM (inactive) | GI50 (K562): 13.3 µM (inactive) | GI50 (KM-20L2): 14.8 µM (inactive) | GI50 (MOLT-4): 18.2 µM (inactive) | GI50 (Malme-3M): 13.8 µM (inactive) | GI50 (OVCAR-3): 12.2 µM (inactive) | GI50 (SF-268): 22.5 µM (inactive) | GI50 (UACC-62): 11.6 µM (inactive)

Cc1ccc2nc3c(C)c(Cl)c(=O)cc-3sc2c1
GI50 (A549): 16.7 µM (inactive) | GI50 (ACHN): 18.5 µM (inactive) | GI50 (DMS-114): 2.97 µM (inactive) | GI50 (EKVX): 38.8 µM (inactive) | GI50 (HCT-116): 17.8 µM (inactive) | GI50 (HL-60): 2.59 µM (inactive) | GI50 (HOP-92): 34.4 µM (inactive) | GI50 (HT-29): 60.5 µM (inactive) | GI50 (Hs-578T): 21.7 µM (inactive) | GI50 (K562): 3.65 µM (inactive) | GI50 (KM-20L2): 78 µM (inactive) | GI50 (MDA-MB-231): 3.35 µM (inactive) | GI50 (MDA-MB-435): 18.5 µM (inactive) | GI50 (MOLT-4): 4.98 µM (inactive) | GI50 (Malme-3M): > 45.7 µM (inactive) | GI50 (OVCAR-3): 6.97 µM (inactive) | GI50 (PC-3): 8.93 µM (inactive) | GI50 (SF-268): 26.8 µM (inactive) | GI50 (UACC-62): 8.57 µM (inactive)

N#CC12Cc3cc4c(cc3-c3cccc(c31)CCN2C(=O)c1ccccc1)OCO4 (centres undefined)
GI50 (A549): > 100 µM (inactive) | GI50 (ACHN): > 100 µM (inactive) | GI50 (DMS-114): 83 µM (inactive) | GI50 (EKVX): > 100 µM (inactive) | GI50 (HCT-116): > 100 µM (inactive) | GI50 (HL-60): > 100 µM (inactive) | GI50 (HOP-92): 22.8 µM (inactive) | GI50 (HT-29): > 100 µM (inactive) | GI50 (K562): > 100 µM (inactive) | GI50 (KM-20L2): > 100 µM (inactive) | GI50 (MOLT-4): > 100 µM (inactive) | GI50 (Malme-3M): > 100 µM (inactive) | GI50 (OVCAR-3): > 100 µM (inactive) | GI50 (SF-268): > 100 µM (inactive) | GI50 (UACC-62): > 100 µM (inactive)

O=C1CSC(C(/N=N/c2ccccc2)=C2Nc3ccccc3N2)=N1
GI50 (A549): 53.2 µM (inactive) | GI50 (ACHN): 31 µM (inactive) | GI50 (DMS-114): 36.1 µM (inactive) | GI50 (EKVX): 31.1 µM (inactive) | GI50 (HCT-116): 32.4 µM (inactive) | GI50 (HL-60): 35.9 µM (inactive) | GI50 (HOP-92): 18.5 µM (inactive) | GI50 (HT-29): 83.4 µM (inactive) | GI50 (K562): 33.5 µM (inactive) | GI50 (KM-20L2): > 100 µM (inactive) | GI50 (MOLT-4): 10 µM (inactive) | GI50 (Malme-3M): 58.3 µM (inactive) | GI50 (OVCAR-3): 27.4 µM (inactive) | GI50 (SF-268): 36.1 µM (inactive) | GI50 (UACC-62): 31.8 µM (inactive)

CC1[C@@]2(CCC(C)(C)O2)O[C@@H]2C=C3C4CCC5Cc6nc7c(nc6C[C@@]5(C)C4C[C@H](O)[C@@]3(C)[C@]12O)CC1CCC2C3=C[C@H]4O[C@@]5(O[C@@](C)(CO)C[C@@H]5O)C(C)[C@@]4(O)[C@]3(C)[C@@H](O)CC2[C@]1(C)C7 (some centres undefined)
GI50 (A549): 0.0953 µM (active) | GI50 (ACHN): 0.103 µM (active) | GI50 (DMS-114): 0.0268 µM (active) | GI50 (EKVX): 0.175 µM (active) | GI50 (HCT-116): 0.12 µM (active) | GI50 (HL-60): 0.0307 µM (active) | GI50 (HOP-92): 0.0524 µM (active) | GI50 (HT-29): 0.109 µM (active) | GI50 (K562): 0.055 µM (active) | GI50 (KM-20L2): 0.0509 µM (active) | GI50 (MOLT-4): 0.0217 µM (active) | GI50 (Malme-3M): 0.175 µM (active) | GI50 (NCI/ADR-RES): 0.619 µM (active) | GI50 (OVCAR-3): 0.736 µM (active) | GI50 (SF-268): 0.05 µM (active) | GI50 (UACC-62): 0.0508 µM (active)

O=S1(=O)C[C@H](O)[C@H](O)CS1
GI50 (A549): > 100 µM (inactive) | GI50 (ACHN): > 100 µM (inactive) | GI50 (DMS-114): > 100 µM (inactive) | GI50 (EKVX): > 100 µM (inactive) | GI50 (HCT-116): > 100 µM (inactive) | GI50 (HL-60): > 100 µM (inactive) | GI50 (HOP-92): > 100 µM (inactive) | GI50 (HT-29): > 100 µM (inactive) | GI50 (K562): > 100 µM (inactive) | GI50 (KM-20L2): > 100 µM (inactive) | GI50 (MOLT-4): > 100 µM (inactive) | GI50 (Malme-3M): > 100 µM (inactive) | GI50 (OVCAR-3): > 100 µM (inactive) | GI50 (SF-268): > 100 µM (inactive) | GI50 (UACC-62): > 100 µM (inactive)

OCC1CCC(n2cnc3c(O)ncnc32)O1 (centres undefined)
GI50 (A549): > 100 µM (inactive) | GI50 (ACHN): > 1000 µM (inactive) | GI50 (DMS-114): > 100 µM (inactive) | GI50 (EKVX): > 100 µM (inactive) | GI50 (HCT-116): > 100 µM (inactive) | GI50 (HL-60): > 100 µM (inactive) | GI50 (HOP-92): > 100 µM (inactive) | GI50 (HT-29): > 100 µM (inactive) | GI50 (Hs-578T): > 1000 µM (inactive) | GI50 (K562): > 100 µM (inactive) | GI50 (KM-20L2): > 100 µM (inactive) | GI50 (MDA-MB-231): > 1000 µM (inactive) | GI50 (MDA-MB-435): > 1000 µM (inactive) | GI50 (MOLT-4): > 100 µM (inactive) | GI50 (Malme-3M): > 100 µM (inactive) | GI50 (NCI/ADR-RES): > 100 µM (inactive) | GI50 (OVCAR-3): > 100 µM (inactive) | GI50 (PC-3): > 1000 µM (inactive) | GI50 (UACC-62): > 100 µM (inactive)
